{
  "source": "patent US20120070411A1",
  "about": "“SUBSTITUTED NUCLEOTIDE ANALOGS” (Alios BioPharma, Inc., priority 2010, published 2012)",
  "data": [
    {"system": "Huh-7 cells containing the self-replicating, subgenomic HCV replicon", "test": "HCV replicon assay (luciferase reporter, 72 h)", "format": "cell-based", "details": "Hepatitis C virus, Huh-7, 72 h, read-out: HCV Replicon Activity (EC50)", "method": "(§1) Huh-7 cells containing the self-replicating, subgenomic HCV replicon with a stable luciferase (LUC) reporter were cultured in Dulbecco's modified Eagle's medium (DMEM) containing 2 mM L-glutamine and supplemented with 10% heat-inactivated fetal bovine serum (FBS), 1% penicillin-streptomyocin, 1% nonessential amino acids, and 0.5 mg/ml G418.\n(§2) On the first day, 5,000 HCV replicon cells were plated per well in a 96-well plate. On the following day, test compounds were solubilized in 100% DMSO to 100× the desired final testing concentration. Each compound was then serially diluted (1:3) up to 9 different concentrations. Compounds in 100% DMSO are reduced to 10% DMSO by diluting 1:10 in cell culture media. The compounds were diluted to 10% DMSO with cell culture media, which were used to dose the HCV replicon cells in 96-well format. The final DMSO concentration was 1%. The HCV replicon cells were incubated at 37° C. for 72 hours. At 72 hours, cells were processed when the cells are still subconfluent. Compounds that reduce the LUC signal are determined by Bright-Glo Luciferase Assay (Promega, Madison, Wis.). % Inhibition was determined for each compound concentration in relation to the control cells (untreated HCV replicon) to calculate the EC50.", "units": {"EC50": "µM"}, "values": [
      {"smiles": "CC(C)OC(=O)[C@H](C)NP(=O)(Oc1ccccc1)O[C@@H](C)[C@H]1O[C@@H](n2cnc3c(N)nc(N)nc32)[C@H](O)[C@@H]1O", "note": "(stereo partly drawn) [E1, 1-(2,6-diaminopurin-9-yl)-5(S)—C-methyl-β-D-ribofuranose 5-[phenyl(isopropoxy-L-alaninyl)]phosphate]", "EC50": "< 30"},
      {"smiles": "COC(=O)[C@H](C)NP(=O)(Oc1ccccc1)O[C@@H](C)[C@H]1O[C@@H](n2cnc3c(N)ncnc32)[C@](C)(O)[C@@H]1O", "note": "(stereo partly shown)", "EC50": "< 1000"},
      {"smiles": "C[C@H](NP(=O)(Oc1cccc2ncccc12)O[C@@H](C)[C@H]1O[C@@H](n2cnc3c(N)ncnc32)[C@H](O)[C@@H]1O)C(=O)OC1CCCCC1", "note": "(stereo in doubt) [A35]", "EC50": "< 30"},
      {"smiles": "C[C@H](OP(=O)(N[C@@H](Cc1ccccc1)C(=O)OC1CCCCC1)Oc1ccccc1)[C@H]1O[C@@H](n2cnc3c(N)ncnc32)[C@H](O)[C@@H]1O", "note": "(stereo partly shown) [A42]", "EC50": "< 30"},
      {"smiles": "CC(C)OC(=O)[C@H](C)NP(=O)(Oc1ccccc1)O[C@@H](C)[C@H]1O[C@@H](n2cnc3c(N)ncnc32)[C@H](O)[C@@H]1O", "note": "(stereo partly drawn) [A8, 5′(S)—C-methyladenosine 5′-[phenyl(isopropoxy-L-alaninyl)]phosphate]", "EC50": "< 1"},
      {"smiles": "C[C@H](NP(=O)(Oc1cccc2ccccc12)O[C@@H](C)[C@H]1O[C@@H](n2cnc3c(N)ncnc32)[C@H](O)[C@@H]1O)C(=O)OCC(C)(C)C", "note": "(stereo partly drawn) [A2, 5′(S)—C-methyladenosine 5′-[1-naphthyl(neopentoxy-L-alaninyl)]phosphate]", "EC50": "< 1"},
      {"smiles": "CCOC(=O)[C@H](C)NP(=O)(Oc1cccc2ccccc12)O[C@@H](C)[C@H]1O[C@@H](n2cnc3c(N)ncnc32)[C@H](O)[C@@H]1O", "note": "(stereo partly drawn) [A19, 5′(S)—C-methyladenosine 5′-[1-naphthyl(ethoxy-L-alaninyl)]phosphate]", "EC50": "< 1"},
      {"smiles": "C[C@H](N[P@](=O)(Oc1ccccc1)O[C@@H](C)[C@H]1O[C@@H](n2cnc3c(N)ncnc32)[C@H](O)[C@@H]1O)C(=O)OC1CCCCC1", "note": "[A10b, 5′(S)—C-methyladenosine 5′(R)-[phenyl(cyclohexoxy-L-alaninyl)]phosphate]", "EC50": "< 1"},
      {"smiles": "C[C@H](NP(=O)(Oc1cccc2ccccc12)O[C@@H](C)[C@H]1O[C@@H](n2cnc3c(N)ncnc32)[C@H](O)[C@@H]1O)C(=O)OC1CCCCC1", "note": "(stereo partly drawn) [A1, 5′(S)—C-methyladenosine 5′-[1-naphthyl(cyclohexoxy-L-alaninyl)]phosphate]", "EC50": "< 1"},
      {"smiles": "COC(=O)Nc1ncnc2c1ncn2[C@@H]1O[C@H]([C@H](C)OP(=O)(N[C@@H](C)C(=O)OCC(C)(C)C)Oc2cccc3ccccc23)[C@H]2OC(=O)O[C@H]21", "note": "(stereo partly drawn) [A7, 2′,3′-O-carbonyl-N6-methoxycarbonyl-5′(S)—C-methyladenosine 5′-[1-naphthyl(neopentoxy-L-alaninyl)]phosphate]", "EC50": "< 30"},
      {"smiles": "C[C@H](NP(=O)(Oc1ccccc1)O[C@@H](C)[C@H]1O[C@@H](n2cnc3c(N)ncnc32)[C@@H]2OC(=O)O[C@@H]21)C(=O)OCC(C)(C)C", "note": "(stereo partly drawn) [A12, 2′,3′-O-carbonyl-5′(S)—C-methyladenosine 5′-[phenyl(neopentoxy-L-alaninyl)]phosphate]", "EC50": "< 1"},
      {"smiles": "C[C@H](N[P@@](=O)(Oc1ccccc1)O[C@@H](C)[C@H]1O[C@@H](n2cnc3c(N)ncnc32)[C@H](O)[C@@H]1O)C(=O)OC1CCCCC1", "note": "[A10a, 5′(S)—C-methyladenosine 5′(S)-[phenyl(cyclohexoxy-L-alaninyl)]phosphate]", "EC50": "< 1"},
      {"smiles": "COC(=O)Nc1ncnc2c1ncn2[C@@H]1O[C@H]([C@H](C)OP(=O)(N[C@@H](C)C(=O)OC2CCCCC2)Oc2cccc3ccccc23)[C@H]2OC(=O)O[C@H]21", "note": "(stereo partly drawn) [A5, 2′,3′-O-carbonyl-N6-methoxycarbonyl-5′(S)—C-methyladenosine 5′-[1-naphthyl(cyclohexoxy-L-alaninyl)]phosphate]", "EC50": "< 30"},
      {"smiles": "CSCC[C@H](NP(=O)(Oc1ccccc1)O[C@@H](C)[C@H]1O[C@@H](n2cnc3c(N)ncnc32)[C@H](O)[C@@H]1O)C(=O)OC1CCCCC1", "note": "(stereo partly shown) [A41]", "EC50": "< 1"},
      {"smiles": "CC(C)OC(=O)[C@H](C)NP(=O)(Oc1cccc2ccccc12)O[C@@H](C)[C@H]1O[C@@H](n2cnc3c(N)ncnc32)[C@H](O)[C@@H]1O", "note": "(stereo partly drawn) [A20, 5′(S)—C-methyladenosine 5′-[1-naphthyl(isopropoxy-L-alaninyl)]phosphate]", "EC50": "< 1"},
      {"smiles": "COC(=O)[C@H](C)NP(=O)(Oc1ccccc1)O[C@H](C)[C@H]1O[C@@H](n2cnc3c(N)ncnc32)[C@H](O)[C@@H]1O", "note": "(stereo partly shown)", "EC50": "< 30"},
      {"smiles": "CC(C)OC(=O)[C@H](C)NP(=O)(Oc1ccccc1)O[C@H]([C@H]1O[C@@H](n2cnc3c(N)ncnc32)[C@H](O)[C@@H]1O)C(F)(F)F", "note": "(stereo partly drawn) [A26, 5′(S)—C-trifluoromethyladenosine 5′-[phenyl(isopropoxy-L-alaninyl)]phosphate]", "EC50": "< 100"},
      {"smiles": "COC(=O)Nc1ncnc2c1ncn2[C@@H]1O[C@H]([C@H](C)OP(=O)(N[C@@H](C)C(=O)OC2CCCCC2)Oc2cccc3ccccc23)[C@@H](O)[C@H]1O", "note": "(stereo partly drawn) [A6, N6-methoxycarbonyl-5′(S)—C-methyladenosine 5′-[1-naphthyl(cyclohexoxy-L-alaninyl)]phosphate]", "EC50": "< 30"},
      {"smiles": "CC[C@@H](OP(=O)(N[C@@H](C)C(=O)OC(C)C)Oc1ccccc1)[C@H]1O[C@@H](n2cnc3c(N)ncnc32)[C@H](O)[C@@H]1O", "note": "(stereo partly drawn) [A25, 5′(R)—C-ethyladenosine 5′-[phenyl(isopropoxy-L-alaninyl)]phosphate]", "EC50": "< 1000"},
      {"smiles": "CC(C)OC(=O)[C@H](C)NP(=O)(Oc1ccccc1)O[C@@H]([C@H]1O[C@@H](n2cnc3c(N)ncnc32)[C@H](O)[C@@H]1O)C(F)(F)F", "note": "(stereo partly drawn) [A27, 5′(R)—C-trifluoromethyladenosine 5′-[phenyl(isopropoxy-L-alaninyl)]phosphate]", "EC50": "< 30"},
      {"smiles": "C[C@H](NP(=O)(Oc1cccnc1)O[C@@H](C)[C@H]1O[C@@H](n2cnc3c(N)ncnc32)[C@H](O)[C@@H]1O)C(=O)OC1CCCCC1", "note": "(stereo partly shown) [A36]", "EC50": "< 30"},
      {"smiles": "CC(C)OC(=O)[C@H](C)NP(=O)(Oc1ccccc1)O[C@@H](C)[C@H]1O[C@@H](n2cnc3c(N)ncnc32)[C@@H]2OC(=O)O[C@@H]21", "note": "(stereo partly drawn) [A9, 2′,3′-carbonyl-5′(S)—C-methyladenosine 5′-[phenyl(isopropoxy-L-alaninyl)]phosphate]", "EC50": "< 1"},
      {"smiles": "CC(C)OC(=O)[C@H](C)NP(=O)(Oc1ccccc1)O[C@@H](C)[C@H]1O[C@@H](n2ccc(N)nc2=O)[C@H](O)[C@@H]1O", "note": "(stereo partly drawn) [C8, 5′(S)—C-methylcytidine 5′-[phenyl(isopropoxy-L-alaninyl)]phosphate]", "EC50": "< 100"},
      {"smiles": "C[C@H](NP(=O)(Oc1ccc(F)cc1)O[C@@H](C)[C@H]1O[C@@H](n2cnc3c(N)ncnc32)[C@H](O)[C@@H]1O)C(=O)OC1CCCCC1", "note": "(stereo in doubt) [A31]", "EC50": "< 1"},
      {"smiles": "CC(C)[C@H](NP(=O)(Oc1ccccc1)O[C@@H](C)[C@H]1O[C@@H](n2cnc3c(N)ncnc32)[C@H](O)[C@@H]1O)C(=O)OC1CCCCC1", "note": "(stereo partly shown) [A39]", "EC50": "< 1"},
      {"smiles": "CC(C)OC(=O)[C@H](C)NP(=O)(Oc1cccc2ccccc12)OC(C)[C@H]1O[C@@H](n2ccc(N)nc2=O)[C@@H](C)[C@@H]1O", "note": "(mixture of isomers) [C10, 2′-deoxy-2′-C-β-methyl-5′(R/S)—C-methylcytidine 5′-[1-naphthyl (isopropoxy-L-alaninyl)]phosphate]", "EC50": "< 30"},
      {"smiles": "COC(=O)[C@@H](C)NP(=O)(Oc1ccccc1)O[C@@H](C)[C@H]1O[C@@H](n2cnc3c(N)ncnc32)[C@](C)(O)[C@@H]1O", "note": "(stereo partly shown) [drawing 355]", "EC50": "30 to 200"},
      {"smiles": "COC(=O)[C@H](C)NP(=O)(Oc1ccccc1)O[C@H](C)[C@H]1O[C@@H](n2ccc(=O)[nH]c2=O)[C@@H](O)[C@@H]1O", "note": "(stereo partly drawn) [D1, 5′(R)—C-methylarabinouridine 5′-[phenyl(methoxy-L-alaninyl)]phosphate]", "EC50": "< 1000"},
      {"smiles": "COC(=O)[C@H](C)NP(=O)(Oc1ccccc1)O[C@@H](C)[C@H]1O[C@@H](n2ccc(N)nc2=O)[C@H](O)[C@@H]1O", "note": "(stereo partly drawn) [C6, 5′(S)—C-Methylcytidine 5′-[phenyl(methoxy-L-alaninyl)]phosphate]", "EC50": "< 100"},
      {"smiles": "CC(NP(=O)(Oc1ccccc1Cl)OC(C)C1OC(n2cnc3c(N)ncnc32)[C@H](O)[C@@H]1O)C(=O)OC1CCCCC1", "note": "(stereo partly drawn) [A28, 5′(S)—C-methyladenosine 5′-[2-chlorophenyl(cyclohexoxy-L-alaninyl)]phosphate]", "EC50": "< 1"}
    ]},
    {"system": "Huh-7 cells containing the self-replicating, subgenomic HCV replicon", "test": "HCV replicon assay (luciferase reporter, 72 h)", "format": "cell-based", "details": "Hepatitis C virus; Table 9; Huh-7 HCV replicon cells, luciferase, 72 hours; read-out: HCV Replicon Activity (EC50)", "method": "as §1, §2", "units": {"EC50": "µM"}, "values": [
      {"smiles": "C[C@@H](O)[C@H]1O[C@@H](n2ccc(N)nc2=O)C(F)(F)[C@@H]1O", "EC50": "< 5"},
      {"smiles": "C[C@@H](O)[C@H]1O[C@@H](n2ccc(N)nc2=O)[C@@H](O)[C@@H]1O", "EC50": "< 5"},
      {"smiles": "CC(=O)Nc1ccn([C@@H]2O[C@H]([C@H](C)OC(C)=O)[C@@H](OC(C)=O)C2(F)F)c(=O)n1", "EC50": "< 5"},
      {"smiles": "CC(=O)O[C@@H](C)[C@H]1O[C@@H](n2ccc(N)nc2=O)C(F)(F)[C@@H]1O", "EC50": "< 5"},
      {"smiles": "CCC(=O)O[C@@H](C)[C@H]1O[C@@H](n2ccc(N)nc2=O)C(F)(F)[C@@H]1OC(=O)CC", "EC50": "< 5"},
      {"smiles": "C[C@H](O)[C@H]1O[C@@H](n2ccc(N)nc2=O)[C@H](F)[C@@H]1O", "EC50": "5 to 30"},
      {"smiles": "CC(=O)O[C@@H](C)[C@H]1O[C@@H](n2ccc(N)nc2=O)C(F)(F)[C@@H]1OC(C)=O", "EC50": "< 5"}
    ]}
  ]
}
